Laboratory results published in patent US11896704B2, “Compounds useful for the treatment and/or care of the skin, hair, nails and/or mucous membranes” (LUBRIZOL ADVANCED MATERIALS, INC., priority 2017, dated 2024).

What was measured:
JARID1A gene = JARID1A gene expression in synchronized human epidermal keratinocytes (HEKa), real time PCR arrays; assay type: cell-based; conditions: 0.5 mg/ml, one experiment
Description: In Vitro Study of JARID1A Gene Expression in Synchronized Human Epidermal Keratinocytes from Adult (HEKa) Using Real Time PCR Arrays.
HEKa cells (Life Technologies) are seeded at 3.0×10^5 cells/well in 12-well plates (2 wells per condition) and incubated in culture medium, Keratinocyte growth medium supplemented with Mix C39016-CaCl2 solution (Promocell). For synchronization, cells were subjected to two alternative cycles of 12 hours each at 37° C. in 5% CO2 humidified air (day mode) and 33° C. in 5% CO2 humidified air (night mode). 12 hours after starting synchronization, cells are incubated with the peptides at 0.5 mg/ml or (5 μg/ml) in culture medium, depending on the toxicity effects of each peptide (non-toxic conditions are selected). Cells treated with medium alone are used as basal condition.
At the end of synchronization, cell lysates are collected at two different times: 7:30 hour (early morning point) and 11:30 hour (midday point). Briefly, cells are lysed directly in the wells, and RNA is purified following the protocol described on the RNeasy™ Mini kit (Qiagen) according to the manufacture's protocol. After RNA elution, quantification and analysis of purity of RNA samples are performed with a nanodrop (Thermo). For each sample, 3 μg of high quality RNA is retrotranscribed with iScript Advanced™ (BioRad) in a final volume of 20 μl. Complete reaction mix is incubated in a thermal cycler (Eppendorf) at 42° C. for 30 minutes, and the reaction is stopped at 85° C. for 5 minutes. Complementary DNA is amplified by qPCR in a real-time PCR thermocycler (BioRad) using SYBR Green Supermix™ (BioRad) in the 96-well plate for use with SYBR® Green (BioRad). SYBR Green binds to double-stranded DNA molecules and emits fluorescence which is quantified, and the fluorescence intensity is proportional to the amount of the product in the PCR reaction. Cycling conditions in BioRad CFX96™ instrument are: 95° C. for 3 minutes, followed by 40 cycles of denaturing at 95° C. for 5 seconds, annealing and elongation at 60° C. for 30 seconds. GAPDH (Glyceraldehyde 3-phosphate dehydrogenase), TBP (TATA box binding protein) and HRPT1 (hypoxanthine phosphoribosyltransferase 1) are used as endogenous controls. Fold change relative to the expression of the sample genes and reference genes is calculated using normalized expression (AA(Ct)) method using CFX Manager Software™ (BioRad).
Fold induction of JARID1A gene at 7:30 hour with respect to basal conditions at 7:30 hour for the samples tested are shown in Table 7. The data for fold induction represent the value of one experiment.

[1] = tested on: mitochondrial complex II (succinate-coenzyme Q reductase); test: Mitochondrial complex II activity in human dermal fibroblasts, colorimetric assay; assay type: cell-based; conditions: HDFa, 24 hours
Description: Measurement of Increase in Mitochondrial Complex II Activity Using an Assay Based on Colorimetric Detection.
Human Dermal Fibroblasts from adult (HDFa, Life Technologies) are seeded at a density of 750.000 cells/75 cm^2 flask (one flask per condition) in culture medium M106 with Low Serum Growth Supplement (Life Technologies). Cells are grown during 7 days at 37° C. in 5% CO2 humidified air. […]. Non treated cells incubated in culture medium alone are used as basal conditions. After 24 hours of treatment, cells are detached using trypsin and resuspended in 40 ul of Phosphate buffer saline (Sigma). Total protein concentration is measured with a Pierce BCA Protein Assay Kit (BCA Assay, Thermo Scientific) following manufacturer's protocol to adjust the final protein concentration between 2500-3000 ug/ml. Briefly, standards and samples are dispensed and Working Reagent is added to the samples. After 30 minutes of incubation at 37° C., absorbance is measured with a microplate reader (Clariostar®, BMG) at 562 nm.
Mitochondrial complex II activity is measured with Complex II enzyme activity microplate assay Kit (Abcam) according to the manufacture's protocol. This assay follows the production of ubiquinol (QH2, produced by mitochondrial complex II) coupled to the reduction of a colorimetric dye (DCPIP, 2,6-diclorophenolindophenol). In brief, 50 ul of each sample (adjusted to 2500-3000 ug/ml of total protein amount) is incubated for 2 hours. After that, wells are washed several times and incubated with Activity solution provided with the kit (composed by ubiquinone, succinate and DCPIP). For the determination of mitochondrial complex II activity, colorimetric reduction of DCPIP at Optical Density (OD) 600 nm in a kinetic reaction along 30 minutes is measured with a microplate reader (Clariostar®, BMG). Results are calculated as the rate of decrease in absorbance at OD 600 nm between two points in the linear zone over time.
[…]. These values represent the mean for at least three independent assays.

H-Phe-Trp-Met-Lys-Arg-Lys-Arg-Val-Pro-NH2 (H-FWMKRKRVP-NH2) [PEP-1]
Fold induction with respect to Basal condition at 7:30h (%) (JARID1A gene): 212.39% | Percentage of mitochondrial complex II activity relative to basal condition (%) ([1]; 0.1 mg/mL): 166.00% | Percentage of mitochondrial complex II activity relative to basal condition (%) ([1]; 0.5 mg/mL): 142.12% | Percentage of mitochondrial complex II activity relative to basal condition (%) ([1]; 1 mg/mL): 133.00%
